Assay results: patent US20260027121A1, “LIGAND ACTING ON ADENOSINE RECEPTORS AND COMPOSITION COMPRISING SAME FOR PREVENTION, ALLEVIATION, OR TREATMENT OF OBESITYS” (FUTURE MEDICINE CO., LTD., priority 2022, published 2026)
pKi: −log10 of the molar value.

How the values were obtained:
CIDEA reporter mice = assay: qPCR of brown adipocyte markers in brown adipose tissue; format: in vivo, mouse; details: BAT, 1 mg kg-1/day, 10 days
Protocol: Mice were treated with vehicle (CTL), LJ-4378 (LJ, 1 mg kg-1/day), […] (CGS21680, 1 mg kg-1/day), or A3 antagonist (LJ-4433, 1 mg kg-1/day) for 10 days. (A-B) Representative bioluminescence in dorsal and lateral positions (n=3, mean±SEM, ** p<0.01, **** p<0.0001). (C) Representative ex vivo fluorescence image and quantification of fluorescence intensity of BAT and iWAT (n=3, mean±SEM, ** p<0.01, **** p<0.0001). (D) qPCR analysis of UCP1 and CIDEAM RNA expression levels of brown adipose tissue (BAT) (n=3, mean±SEM, * p<0.05, ** p<0.01, *** p<0.001).
qPCR analysis was performed to investigate the adenosine receptor expression levels in brown adipocytes differentiated from immortalized brown adipocyte precursor cells. Primers used for the qPCR analysis are listed in the following [Table 3].

brown adipocytes [1] = assay: Lipolysis: glycerol and free fatty acid levels in conditioned medium; format: cell-based, mouse; details: 0.1 μM, 24 hours
Protocol: (§1) Adipocyte precursor cells capable of differentiating into brown adipocytes were isolated from mouse brown adipose tissue. Cells were cultured in Dulbecco's modified Eagle's medium (Welgene, LM001-07) containing 10% fetal bovine serum (FBS, Gibco, 16000044) and 1% Penicillin Streptomycin (Welgene, LS202-02) at 37° C. in a humidified atmosphere with 5% CO2. When the cells reached about 100% confluency, the cells were exposed to a differentiation medium supplemented with 2.5 mM isobutyl methylxanthine (IBMX, Cayman, I5879), 0.125 mM indomethacin (Cayman, 70270), 1 μM dexamethasone (Cayman), 1 μg/mL insulin (Sigma, I9278), and 1 nM triiodothyronine (T3, Cayman, 6028) for 3 days for adipogenesis. Then, the cells were maintained in a growth medium containing 1 μg/mL insulin and 1 nM triiodothyronine (T3) for 3 days.
The free fatty acid (FFA) levels in the medium were measured using an NEFA reagent (WAKO, 436-91693) according to the manufacturer's product protocol.
Glycerol and free fatty acid (FFA) levels in a medium were measured using a glycerol reagent (Sigma Aldrich, F6428) and a NEFA reagent (WAKO, 436-91693) according to the manufacturer's product protocols.

brown adipocytes [2] = assay: Immunoblot of PKA downstream proteins (P-HSL, P-CREB) in brown adipocytes; format: cell-based, mouse; details: 0.1 μM, 24 hours, FIG. 3D
Protocol: as §1
(§2) In the case of Western blots, the primary antibodies used for Western blots are summarized in [Table 2] above. An anti-rabbit horseradish peroxidase antibody (1:3000, Thermo Fisher, 31460) and an anti-mouse horseradish peroxidase antibody (1:3000, Jackson, 115-035-174) were used as secondary antibodies. All antibodies were diluted in a blocking buffer (5% skimmed milk or 5% bovine serum albumin in TBST). Western blot images were acquired using a Fusion Solo chemiluminescence imaging system (Vilber Lourmat) and analyzed with Evolution Capt software (version 17.03). NIH ImageJ software was used for quantification.

brown adipocytes [3] = assay: Immunoblot of mitochondrial proteins and UCP1 in brown adipocytes; format: cell-based, mouse; details: 0.1 μM, 24 hours, FIG. 4D
Protocol: as §1, §2

[4] = biological target: T1, A3 adenosine receptor (hA3AR) (Homo sapiens, UniProt P0DMS8); assay: Radioligand binding affinity, adherent HEK293 cells stably transfected with hAR cDNA; details: normalized to NECA 10 μM
T1 construct: expressed in transfected cells; host or cells: HEK293 (adherent, stably transfected)
T1 sequence (P0DMS8 1-318): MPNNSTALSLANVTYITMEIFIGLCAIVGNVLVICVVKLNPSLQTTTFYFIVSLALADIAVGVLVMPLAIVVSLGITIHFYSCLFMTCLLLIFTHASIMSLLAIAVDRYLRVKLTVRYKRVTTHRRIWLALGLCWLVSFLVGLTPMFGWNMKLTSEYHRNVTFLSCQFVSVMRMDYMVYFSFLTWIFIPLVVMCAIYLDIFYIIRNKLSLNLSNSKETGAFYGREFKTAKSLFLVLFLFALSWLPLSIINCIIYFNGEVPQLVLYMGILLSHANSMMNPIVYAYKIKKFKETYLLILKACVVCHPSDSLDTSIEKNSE
Protocol: (§3) The binding affinity of LJ-4378 and derivatives thereof to A2AAR and A3AR is as shown in the following [Table 1]. All binding affinity experiments were performed using adherent HEK293 cells stably transfected with cDNAs encoding appropriate hAR bonds, and were performed using 1 nM [3H]17, 10 nM [3H]18, or 0.2 nM [3H]16 as radioligands for A2A and A3AR, respectively. Values were normalized to a non-specific binder 5′-N-ethylcarboxamidoadenosine (NECA, 10 μM).

[5] = biological target: T2, A2A adenosine receptor (hA2AR) (Homo sapiens, UniProt P29274); assay: as above; details: normalized to NECA 10 μM
T2 construct: expressed in transfected cells; host or cells: HEK293 (adherent, stably transfected)
Protocol: as §3

T2 sequence (P29274 whole entry): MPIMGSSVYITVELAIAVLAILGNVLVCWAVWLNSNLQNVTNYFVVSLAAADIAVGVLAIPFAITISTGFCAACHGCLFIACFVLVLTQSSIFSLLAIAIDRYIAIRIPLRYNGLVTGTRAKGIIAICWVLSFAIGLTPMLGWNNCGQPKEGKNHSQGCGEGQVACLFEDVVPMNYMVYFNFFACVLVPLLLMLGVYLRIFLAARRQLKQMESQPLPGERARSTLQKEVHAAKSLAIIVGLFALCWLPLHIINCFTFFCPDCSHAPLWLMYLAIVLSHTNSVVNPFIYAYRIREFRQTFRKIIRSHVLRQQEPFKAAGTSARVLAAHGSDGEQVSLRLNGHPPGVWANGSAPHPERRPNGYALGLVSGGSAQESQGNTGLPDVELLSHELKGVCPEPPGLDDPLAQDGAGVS

CCNC(=O)[C@H]1O[C@@H](n2cnc3c(N)nc(NCCc4ccc(CCC(=O)O)cc4)nc32)[C@H](O)[C@@H]1O [CGS21680, reference compound]
Cidea mRNA level, fold increase (CIDEA reporter mice): 1.29±0.12 fold | Ucp1 mRNA level, fold increase (CIDEA reporter mice): 1.72±0.17 fold | glycerol level in conditioned medium, fold change (brown adipocytes [1]; FIG. 3B): 1.51±0.08 fold | FFA level in conditioned medium, fold change (brown adipocytes [1]; FIG. 3C): 1.29±0.09 fold | P-CREB, fold increase (brown adipocytes [2]): 2.00±0.11 fold | P-HSL, fold increase (brown adipocytes [2]): 1.54±0.05 fold | COXIV, fold increase (brown adipocytes [3]): increased | MCAD, fold increase (brown adipocytes [3]): increased | UCP1, fold increase (brown adipocytes [3]): increased

CC#Cc1nc(N)c2ncn([C@@H]3SC[C@@H](O)[C@H]3O)c2n1 [Compound 9a, (2R,3R,4S)-2-(6-amino-2-(prop-1-yn-1-yl)-9H-purin-9-yl)tetrahydrothiophene-3,4-diol]
pKi [4]: 7.19 | pKi [5]: 6.93

CC#Cc1nc(NCc2cccc(F)c2)c2ncn([C@@H]3SC[C@@H](O)[C@H]3O)c2n1 [Compound 9b, (2R,3R,4S)-2-(6-((3-fluorobenzyl)amino)-2-(prop-1-yn-1-yl)-9H-purin-9-yl)tetrahydro thiophene-3,4-diol]
pKi [4]: 7.52 | pKi [5]: 6.11

CC#Cc1nc(NCc2cccc(Cl)c2)c2ncn([C@@H]3SC[C@@H](O)[C@H]3O)c2n1 [Compound 9c, (2R,3R,4S)-2-(6-((3-chlorobenzyl)amino)-2-(prop-1-yn-1-yl)-9H-purin-9-yl)tetrahydro thiophene-3,4-diol]
pKi [4]: 8.82 | pKi [5]: 6.66

CC#Cc1nc(NCc2cccc(Br)c2)c2ncn([C@@H]3SC[C@@H](O)[C@H]3O)c2n1 [Compound 9d, (2R,3R,4S)-2-(6-((3-bromobenzyl)amino)-2-(prop-1-yn-1-yl)-9H-purin-9-yl)tetrahydro thiophene-3,4-diol]
pKi [4]: 7.95 | pKi [5]: 6.33

CC#Cc1nc(NCc2cccc(I)c2)c2ncn([C@@H]3SC[C@@H](O)[C@H]3O)c2n1 [Compound 9e, (2R,3R,4S)-2-(6-((3-iodobenzyl)amino)-2-(prop-1-yn-1-yl)-9H-purin-9-yl)tetrahydro thiophene-3,4-diol]
pKi [4]: 7.70 | pKi [5]: 6.92

CCC#Cc1nc(N)c2ncn([C@@H]3SC[C@@H](O)[C@H]3O)c2n1 [Compound 9f, (2R,3R,4S)-2-(6-amino-2-(but-1-yn-1-yl)-9H-purin-9-yl)tetrahydrothiophene-3,4-diol]
pKi [4]: 7.17 | pKi [5]: 7.62

CCC#Cc1nc(NCc2cccc(F)c2)c2ncn([C@@H]3SC[C@@H](O)[C@H]3O)c2n1 [Compound 9g, (2R,3R,4S)-2-(2-(but-1-yn-1-yl)-6-((3-fluorobenzyl)amino)-9H-purin-9-yl)tetrahydrothiophene-3,4-diol]
pKi [4]: 8.02 | pKi [5]: 6.04

CCC#Cc1nc(NCc2cccc(Cl)c2)c2ncn([C@@H]3SC[C@@H](O)[C@H]3O)c2n1 [Compound 9h, (2R,3R,4S)-2-(2-(but-1-yn-1-yl)-6-((3-chlorobenzyl)amino)-9H-purin-9-yl)tetrahydrothiophene-3,4-diol]
pKi [4]: 8.42 | pKi [5]: 6.62

CCC#Cc1nc(NCc2cccc(Br)c2)c2ncn([C@@H]3SC[C@@H](O)[C@H]3O)c2n1 [Compound 9i, (2R,3R,4S)-2-(6-((3-bromobenzyl)amino)-2-(but-1-yn-1-yl)-9H-purin-9-yl)tetrahydrothiophene-3,4-diol]
pKi [4]: 9.53 | pKi [5]: 6.95

CCC#Cc1nc(NCc2cccc(I)c2)c2ncn([C@@H]3SC[C@@H](O)[C@H]3O)c2n1 [Compound 9j, (2R,3R,4S)-2-(2-(but-1-yn-1-yl)-6-((3-iodobenzyl)amino)-9H-purin-9-yl)tetrahydrothiophene-3,4-diol]
pKi [4]: 8.07 | pKi [5]: 7.24
